Reference: patent US10906890B2, “Triazole phenyl compounds as agonists of the APJ receptor” (AMGEN INC., priority 2016, dated 2021)

Molecular target: human APJ receptor (Homo sapiens (Human), UniProt P35414)
Assay: [35S]GTPγS binding assay on membranes from CHO cells stably expressing human APJ receptor
Assay type: biochemical
Conditions: means of several independent experiments, read-out: Activity hAPJ SPA EC50 IP
Method in brief: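 Membranes from CHO cells stably expressing FLAG-tagged human APJ incubated with [35S]GTPγS in buffer with optimized GDP, MgCl2 and NaCl levels, 90 min at RT. Signal read by imaging; EC50 by non-linear regression from means of several independent experiments.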

human APJ receptor, sequence (P35414 whole entry): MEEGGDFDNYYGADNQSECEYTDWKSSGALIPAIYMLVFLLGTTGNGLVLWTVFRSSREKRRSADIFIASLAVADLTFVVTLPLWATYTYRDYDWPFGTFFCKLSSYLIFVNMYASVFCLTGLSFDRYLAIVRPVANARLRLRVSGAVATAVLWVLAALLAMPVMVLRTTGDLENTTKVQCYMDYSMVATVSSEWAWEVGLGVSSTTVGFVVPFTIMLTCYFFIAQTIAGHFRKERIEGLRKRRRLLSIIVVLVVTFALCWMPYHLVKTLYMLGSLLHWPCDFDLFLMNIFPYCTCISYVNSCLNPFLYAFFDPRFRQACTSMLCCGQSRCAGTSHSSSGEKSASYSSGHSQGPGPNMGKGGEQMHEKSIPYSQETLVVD

SMILES	EC50 [nM]
COc1cccc(OC)c1-n1c(NS(=O)(=O)[C@@H](C)[C@H](OC)c2ncc(C)cn2)nnc1-c1cccc([C@](C)(O)C(F)(F)F)c1 (mixture of isomers) [Example 88.0, (1R,2S)—N-(4-(2,6-Dimethoxyphenyl)-5-(3-((1S)-2,2,2-trifluoro-1-hydroxy-1-methylethyl)phenyl)-4H-1,2,4-triazol-3-yl)-1-methoxy-1-(5-methyl-2-pyrimidinyl)-2-propanesulfonamide and (1R,2S)—N-(4-(2,6-dimethoxyphenyl)-5-(3-((1R)-2,2,2-trifluoro-1-hydroxy-1-methylethyl)phenyl)-4H-1,2,4-triazol-3-yl)-1-methoxy-1-(5-methyl-2-pyrimidinyl)-2-propanesulfonamide]	23
COc1cnc([C@@H](C)[C@H](C)S(=O)(=O)Nc2nnc(-c3ccccc3Br)n2C2COC(C)(C)OC2)nc1 [Example 128.0]	910
CO[C@H](c1ncc(C)cn1)[C@H](C)S(=O)(=O)Nc1nnc(-c2ccccc2)n1-c1c(F)cccc1F [Example 41.0, (1R,2S)-N-(4-(2,6-difluorophenyl)-5-phenyl-4H-1,2,4-triazol-3-yl)-1-methoxy-1-(5-methyl-2-pyrimidinyl)-2-propanesulfonamide]	4.7
CO[C@H](c1ncc(Cl)cn1)[C@H](C)S(=O)(=O)Nc1nnc(-c2ccccc2)n1C1CCOCC1 [Example 62.0, (1R,2S)-1-(5-chloro-2-pyrimidinyl)-1-methoxy-N-(5-phenyl-4-(tetrahydro-2H-pyran-4-yl)-4H-1,2,4-triazol-3-yl)-2-propanesulfonamide]	74
Cc1cnc([C@@H](C)[C@H](C)S(=O)(=O)Nc2nnc(-c3cccc4nn(C)cc34)n2C2CCOCC2)nc1 [Example 120.0]	590
COc1cccc(OC)c1-n1c(NS(=O)(=O)[C@H]2C[C@@H](O)CN(c3ncc(F)cn3)C2)nnc1-c1ccccc1 (mixture of isomers) [Example 53.0, (3R,5S)-N-(4-(2,6-dimethoxyphenyl)-5-phenyl-4H-1,2,4-triazol-3-yl)-1-(5-fluoro-2-pyrimidinyl)-5-hydroxy-3-piperidinesulfonamide and (3S,5R)-N-(4-(2,6-dimethoxyphenyl)-5-phenyl-4H-1,2,4-triazol-3-yl)-1-(5-fluoro-2-pyrimidinyl)-5-hydroxy-3-piperidinesulfonamide]	4.9
COc1cccc(OC)c1-n1c(NS(=O)(=O)[C@H]2C[C@@H](O)CN(c3ncc(F)cn3)C2)nnc1-c1ccccc1 (single isomer, unassigned) [Example 57.0, (3R,5S)-N-(4-(2,6-dimethoxyphenyl)-5-phenyl-4H-1,2,4-triazol-3-yl)-1-(5-fluoro-2-pyrimidinyl)-5-hydroxy-3-piperidinesulfonamide or (3S,5R)-N-(4-(2,6-dimethoxyphenyl)-5-phenyl-4H-1,2,4-triazol-3-yl)-1-(5-fluoro-2-pyrimidinyl)-5-hydroxy-3-piperidinesulfonamide]	1.4
COCC1(n2c(NS(=O)(=O)[C@@H](C)[C@H](OC)c3ncc(Cl)cn3)nnc2-c2cccc3nn(C)cc23)CCC1 [Example 117.0]	340
COc1cccc(OC)c1-n1c(NS(=O)(=O)[C@@H](C)[C@H](OC)c2ncc(C)cn2)nnc1-c1ccc2c(c1)OCO2 [Example 66.0, (1R,2S)-N-(5-(1,3-benzodioxol-5-yl)-4-(2,6-dimethoxyphenyl)-4H-1,2,4-triazol-3-yl)-1-methoxy-1-(5-methyl-2-pyrimidinyl)-2-propanesulfonamide]	0.73
COc1cccc(OC)c1-n1c(NS(=O)(=O)[C@@H](C)[C@H](OC)c2ncc(C)cn2)nnc1-c1ccccc1F [Example 67.0, (1R,2S)-N-(4-(2,6-dimethoxyphenyl)-5-(2-fluorophenyl)-4H-1,2,4-triazol-3-yl)-1-methoxy-1-(5-methyl-2-pyrimidinyl)-2-propanesulfonamide]	5.9
COc1cccc(OC)c1-n1c(NS(=O)(=O)[C@H]2C[C@@H](OC(C)C)CN(c3ncc(F)cn3)C2)nnc1-c1ccccc1 (single isomer, unassigned) [Example 59.0, (3R,5S)-N-(4-(2,6-dimethoxyphenyl)-5-phenyl-4H-1,2,4-triazol-3-yl)-1-(5-fluoro-2-pyrimidinyl)-5-(1-methylethoxy)-3-piperidinesulfonamide or (3S,5R)-N-(4-(2,6-dimethoxyphenyl)-5-phenyl-4H-1,2,4-triazol-3-yl)-1-(5-fluoro-2-pyrimidinyl)-5-(1-methylethoxy)-3-piperidinesulfonamide]	86
COc1ncnc(OC)c1-n1c(NS(=O)(=O)[C@@H](C)[C@H](OC)c2ncc(C)cn2)nnc1-c1cccc(Cl)c1 [Example 3.0, (1R,25)-N-(5-(3-chlorophenyl)-4-(4,6-dimethoxypyrimidin-5-yl)-4H-1,2,4-triazol-3-yl)-1-methoxy-1-(5-methylpyrimidin-2-yl)propane-2-sulfonamide]	5.3
COc1ncnc(OC)c1-n1c(NS(=O)(=O)[C@@H](C)[C@H](C)c2ncc(Cl)cn2)nnc1-c1ccccc1 [Example 17.0, (2S,3R)-3-(5-chloro-2-pyrimidinyl)-N-(4-(4,6-dimethoxy-5-pyrimidinyl)-5-phenyl-4H-1,2,4-triazol-3-yl)-2-butanesulfonamide]	0.89
CO[C@H](c1ncc(Cl)cn1)[C@H](C)S(=O)(=O)Nc1nnc(-c2cccc3nn(C)cc23)n1C(C)C [Example 116.0]	220
COc1cccc(OC)c1-n1c(NS(=O)(=O)[C@@H](C)[C@H](O)c2ncc(C)cn2)nnc1-c1ccccc1 [Example 18.0, (1R,2S)-N-(4-(2,6-dimethoxyphenyl)-5-phenyl-4H-1,2,4-triazol-3-yl)-1-hydroxy-1-(5-methyl-2-pyrimidinyl)-2-propanesulfonamide]	0.81
COc1cccc(OC)c1-n1c(NS(=O)(=O)[C@H]2CCCN(c3ncc(F)cn3)C2)nnc1-c1ccccc1 (single isomer, unassigned) [Example 21.0, (3S)—N-(4-(2,6-Dimethoxyphenyl)-5-phenyl-4H-1,2,4-triazol-3-yl)-1-(5-fluoro-2-pyrimidinyl)-3-piperidinesulfonamide or (3R)—N-(4-(2,6-dimethoxyphenyl)-5-phenyl-4H-1,2,4-triazol-3-yl)-1-(5-fluoro-2-pyrimidinyl)-3-piperidinesulfonamide]	7.3
COc1cccc(OC)c1-n1c(NS(=O)(=O)[C@@H](C)[C@@H](OC(C)C)c2ncc(C)cn2)nnc1-c1ccccc1 [Example 13.0, (1S,2S)-N-(4-(2,6-dimethoxyphenyl)-5-phenyl-4H-1,2,4-triazol-3-yl)-1-(1-methylethoxy)-1-(5-methyl-2-pyrimidinyl)-2-propanesulfonamide]	0.22
COc1ncnc(OC)c1-n1c(NS(=O)(=O)[C@@H](C)[C@H](OC)c2ncc(Cl)cn2)nnc1-c1cccc2cn(C)nc12 [Example 94.0]	2.9
COC[C@H](C)n1c(NS(=O)(=O)[C@@H](C)[C@H](C)c2ncc(Cl)cn2)nnc1-c1ccccc1 [Example 126.0]	17
COc1cccc(OC)c1-n1c(NS(=O)(=O)c2cncc(Br)c2)nnc1-c1ccccc1 [Example 60.0, 5-bromo-N-(4-(2,6-dimethoxyphenyl)-5-phenyl-4H-1,2,4-triazol-3-yl)-3-pyridinesulfonamide]	350
COc1cccc(OC)c1-n1c(NS(=O)(=O)[C@@H](C)[C@H](OC)c2ncc(C)cn2)nnc1-c1cccc2ncccc12 [Example 90.0]	540
COc1cccc(OC)c1-n1c(NS(=O)(=O)[C@H]2CCCN(c3ncc(Cl)cn3)C2)nnc1-c1ccccc1 (single isomer, unassigned) [Example 34.0, (S)-1-(5-Chloropyrimidin-2-yl)-N-(4-(2,6-dimethoxyphenyl)-5-phenyl-4H-1,2,4-triazol-3-yl)piperidine-3-sulfonamide or (R)-1-(5-chloropyrimidin-2-yl)-N-(4-(2,6-dimethoxyphenyl)-5-phenyl-4H-1,2,4-triazol-3-yl)piperidine-3-sulfonamide]	28
COc1ncnc(OC)c1-n1c(NS(=O)(=O)[C@@H](C)[C@@H](OC(C)C)c2ncc(C)cn2)nnc1-c1ccccc1 [Example 14.0, (1S,2S)-N-(4-(4,6-dimethoxy-5-pyrimidinyl)-5-phenyl-4H-1,2,4-triazol-3-yl)-1-(1-methylethoxy)-1-(5-methyl-2-pyrimidinyl)-2-propanesulfonamide]	0.55
COc1cccc(OC)c1-n1c(NS(=O)(=O)[C@@H](C)[C@H](OC)c2ncc(C)cn2)nnc1-c1ccc(Cl)c(Cl)c1 [Example 70.0, (1R,2S)-N-(5-(3,4-dichlorophenyl)-4-(2,6-dimethoxyphenyl)-4H-1,2,4-triazol-3-yl)-1-methoxy-1-(5-methyl-2-pyrimidinyl)-2-propanesulfonamide]	3.8
COc1ncnc(OC)c1-n1c(NS(=O)(=O)[C@H]2CCCN(c3ncc(F)cn3)C2)nnc1-c1ccccc1 (single isomer, unassigned) [Example 27.0, (3S)-N-(4-(4,6-dimethoxy-5-pyrimidinyl)-5-phenyl-4H-1,2,4-triazol-3-yl)-1-(5-fluoro-2-pyrimidinyl)-3-piperidinesulfonamide or (3R)-N-(4-(4,6-dimethoxy-5-pyrimidinyl)-5-phenyl-4H-1,2,4-triazol-3-yl)-1-(5-fluoro-2-pyrimidinyl)-3-piperidinesulfonamide]	32
CO[C@H](c1ncc(Cl)cn1)[C@H](C)S(=O)(=O)Nc1nnc(-c2cccc(OC(F)F)c2)n1C1CC1 [Example 122.0, (1R,2S)-1-(5-Chloropyrimidin-2-yl)-N-(4-cyclopropyl-5-(3-(difluoromethoxy)phenyl)-4H-1,2,4-triazol-3-yl)-1-methoxypropane-2-sulfonamide]	250
COc1cccc(OC)c1-n1c(NS(=O)(=O)[C@@H](C)[C@H](OC)c2ncc(C)cn2)nnc1-c1ccc2nc(N)sc2c1 [Example 74.0, (1R,2S)-N-(5-(2-amino-1,3-benzothiazol-6-yl)-4-(2,6-dimethoxyphenyl)-4H-1,2,4-triazol-3-yl)-1-methoxy-1-(5-methyl-2-pyrimidinyl)-2-propanesulfonamide]	140
